Measurements taken from US5283255A, “Wavelength-specific cytotoxic agents” (The University of British Columbia, priority 1992, dated 1994).
Converted amounts (≈) assume the structure as drawn. Read-outs that look alike come from different tables or passages of the source.

Experiments:
HL-60 = assay: In vitro photosensitization, kill of HL-60 cells; type: cell-based; conditions: Homo sapiens, read-out: LD50 (the source's name)
Experimental: (§1) Target cells were washed three times in serum-free medium (DME), counted and made up to a concentration of 10^7 cells per ml.
(§2) For the "affinity" assay, in the dark, 100 μl of the target cell suspension and 100 μl of the test or control compound were mixed. "Labeling" was allowed to continue for one hour at 4° C., and labeled cells were washed in the dark three times with 3 ml medium each time and resuspended in fresh medium. The resuspended cells were then subjected to light exposure at 300-750 nanometers for 30 minutes.
(§3) In a "direct" assay the target cells were irradiated immediately upon addition of the test or control compound.
(§4) The effect of irradiation was estimated using methods appropriate to the target cells.
(§5) The results of each determination on a variety of cells is shown in Table 1 (LD50 in the concentration of compound required to kill 50% of the cell population.)

[1] = test system: murine mastocytoma cell line P815; assay: In vitro photosensitization, kill of P815 cells; type: cell-based; conditions: Mus musculus; for EC50: P815, 0.5 h, 300-750 nm light for 30 minutes, read-out: concentration at which fifty percent of the P815 cells were killed; for IC50: P815, read-out: LD50 (the source's name)
Experimental: as §1, §2, §3
When the murine mastocytoma cell line P815 was used, the results were determined as follows:
The cells were labeled as above using concentration of 10-50 ng/ml of Hp as control and the BPD-DB as the test substance. The resuspended cells were treated with 300-750 nm light for 30 minutes and the viability resulting was estimated by direct counting using eosin-Y exclusion, a standard procedure for differentiating living from dead cells.
In other determinations conducted as above, the cells recovered from light exposure were assayed for viability by incubating them for 18 hours in 10 μCi/ml tritium-labeled thymidine according to the standard procedure whereby thymidine incorporation is equated with viability. The cells were harvested and radioactivity uptake was measured by a scintillation counter.
as §5

K562 = assay: In vitro photosensitization, kill of K562 cells; type: cell-based; conditions: Homo sapiens, read-out: LD50 (the source's name)
Experimental: as §1, §2, §3, §4, §5

Normal lymphocytes = assay: In vitro photosensitization, kill of normal lymphocytes; type: cell-based; conditions: Lymphocyte, read-out: LD50 (the source's name)
Experimental: as §1, §2, §3, §4, §5

[2] = In vivo cytotoxicity of Gp versus Hp conjugates (CAMAL-1 and anti-M1 procedures); conditions: at appropriate wavelengths
Experimental: The efficacy of the conjugates and of the Gp compounds of the invention in vivo is also assessed. For the CAMAL-1 and anti-Ml conjugates, the procedures are as described in the two Mew et al. papers referenced above in Example 4.

P815 cells = assay: Selective binding of green porphyrin: kill of labeled P815 cells; type: cell-based, murine; conditions: Mus musculus, P815, 0.5 h; labeled in dark 30 minutes, washed, 300-750 nm light 30 minutes; read-out: concentration at which 50% of the P815 cells were destroyed
Experimental: P815 cells were incubated as described in Example 1 using 1-200 ng/ml Hp or Gp. The Gp was BPD-DB of FIG. 2 wherein R^1 and R^2 are carboethoxy. The cells were labeled in the dark for 30 minutes, washed free of unabsorbed porphyrins, resuspended, and then exposed to 300-750 nm light for another 30 minutes. Viability of the cells was established by tritiated thymidine incorporation after labeling with 20 μCi/ml tritiated thymidine and incubating at 37° C. for 18 hours.

[3] = test system: human erythrocytes (RBCS); assay: In vitro photosensitization: hemolysis of human erythrocytes after irradiation; type: cell-based; conditions: Erythrocyte, 0.5 h, light 300-750 nm, 30 minutes, read-out: concentration required to obtain 50% hemolysis
Experimental: as §1, §2
When human erythrocytes (RBCS) were used as target cells, the hemolysis caused by irradiation of control (hematoporphyrin, Hp) labeled and green porphyrin (Gp) labeled cells were estimated visually. The Gp used in this Example was the BPD-DB of FIG. 2 wherein R^1 and R^2 are carboethoxy. […] Thus, a concentration of 250 ng/ml Hp was required under the above conditions to obtain 50% hemolysis while only 10 ng/ml of green porphyrin was required to hemolyze 50% of the RBCs.

KG-1 = assay: In vitro photosensitization, kill of KG-1 cells; type: cell-based; conditions: Homo sapiens, read-out: LD50 (the source's name)
Experimental: as §1, §2, §3, §4, §5

P815 tumors = assay: In vivo cytotoxicity of immunoconjugates, P815 tumor-bearing DBA/2 mice
Experimental: The in vivo test relies on the indirect effect of a population of T-suppressor cells on tumors, which then serve as means to assess the effectiveness of the irradiation treatment. P815 mastocytoma cells grown in syngeneic DBA/2 mice stimulate T-suppressor cells specific for the tumor. These T-suppressor cells impede the development of specific T-killer cells which would otherwise aid in the regression of the tumor.
Therefore, in this assay, DBA/2 mice are injected in the right flank subcutaneously with 10^4 P815 cells to incorporate the tumor. On day eight, when the tumors are palpable (approx. 25-42 sq mm) the mice are randomly sorted into groups of eight and injected IV with 150 μl PBS containing nothing, Hp or Gp, B16G-Hp or B16G-Gp, B16G plus either drug, B16G alone or C-MAbHp or C-MAb-Gp. The levels of Hp are 50 Mg per animal in all cases and B16G 310 μg in all cases (where appropriate).
The animals are maintained in the dark for two hours and then exposed to strong light at 300-750 nm and 22.5 mW/cm^2. The animals were then treated normally and monitored on a daily basis.

M-1 rhabdomycoscercoma = assay: In vivo photosensitization, M-1 rhabdomyosarcoma system in DBA/J2 mice
Experimental: Studies of potential photosensitizers were performed using the M-1 rhabdomycoscercoma system in DBA/J2 mice. The compositions to be tested were diluted to a concentration of […] in PBS from a stock solution in DMSO at 8 mg/ml (except Photofrin® II, which was diluted directly from the clinical vial). […]

SMILES	IC50 (HL-60; HL-60, Affinity test)	IC50 (HL-60; HL-60, Direct test)	EC50 [1]	IC50 ([1]; P815, Affinity test)	IC50 ([1]; P815, Direct test)	IC50 (K562; K562, Affinity test)	IC50 (K562; K562, Direct test)	IC50 (Normal lymphocytes; Affinity test)	IC50 (Normal lymphocytes; Direct test)	EC50 (P815 cells)	EC50 [3]	IC50 (KG-1; KG-1, Affinity test)	IC50 (KG-1; KG-1, Direct test)	also measured
C=Cc1c(C)c2cc3nc(cc4[nH]c(cc5nc(cc1[nH]2)C1(C)C5=CC=C(C(=O)OCC)C1C(=O)OCC)c(C)c4CCC(=O)O)C(CCC(=O)O)=C3C (stereo not shown) [Gp]	0.0072 µg/mL	0.0035 µg/mL	0.032 µg/mL	0.026 µg/mL	0.032 µg/mL	0.033 µg/mL	0.07 µg/mL	0.011 µg/mL	0.0042 µg/mL	0.006 to 0.02 µg/mL (≈ 0.00819 to 0.0273 µM)	0.01 µg/mL	0.08 µg/mL	0.163 µg/mL	in vivo efficacy of Gp compound alone compared to Hp labeled conjugates [2]: superior results
CC1=C(CCC(=O)O)c2cc3[nH]c(cc4nc(cc5[nH]c(cc1n2)c(C)c5C(C)O)C(C)=C4C(C)O)c(C)c3CCC(=O)O (stereo not shown) [Hp, hematoporphyrin, reference compound]	0.145 µg/mL	0.064 µg/mL	0.58 µg/mL	1.3 µg/mL	0.58 µg/mL	2.5 µg/mL	0.77 µg/mL	0.1 µg/mL	0.031 µg/mL	0.2 µg/mL (≈ 0.334 µM)	0.25 µg/mL	2.35 µg/mL	0.96 µg/mL	% tumor-free after 100 (days) (P815 tumors; Experiment 2): 0%; Mean survival time (P815 tumors; Experiment 2): 21.0 days; No. of cures (P815 tumors; Experiment 2): 0/8; % tumor-free after 100 (days) (P815 tumors; Experiment 3): 0%; Mean survival time (P815 tumors; Experiment 3): 23.4 days; No. of cures (P815 tumors; Experiment 3): 0/7; % tumor-free after 100 (days) (P815 tumors; Experiment 4): 0%; Mean survival time (P815 tumors; Experiment 4): 24.2 days; No. of cures (P815 tumors; Experiment 4): 0/8; % tumor-free after 100 (days) (P815 tumors; Experiment 5): 0%; Mean survival time (P815 tumors; Experiment 5): 27.0 days; No. of cures (P815 tumors; Experiment 5): 0/8
C=Cc1c(C)c2cc3nc(cc4[nH]c(cc5nc(cc1[nH]2)C1(C)C5=CC=C(C(=O)OC)C1C(=O)OC)c(C)c4CCC(=O)O)C(CCC(=O)O)=C3C (stereo not shown) [BPD-DB]														Number of Days Tumor Free (PR) (M-1 rhabdomycoscercoma; Table 6, 567 Jo/cm^2, IV 24 h before light): 10.6 days; Cures (tumor regressed and tumor-free for 30 days) (M-1 rhabdomycoscercoma; Table 6, 567 Jo/cm^2, 8 animals per group): 3; Days Tumor-free (M-1 rhabdomycoscercoma; Table 7, light dose 378 To/cm^3): 13.0 days; Number of Cures (M-1 rhabdomycoscercoma; Table 7, light dose 378 To/cm^3, 9-15 animals): 8
